Patent US7425638B2, “Cis-imidazolines” (Hoffmann-La Roche Inc., priority 2003, dated 2008)

Target: recombinant GST-tagged MDM2 / p53 peptide (Homo sapiens, UniProt Q00987)
Assay: HTRF assay of inhibition of the p53-MDM2 interaction
Format: binding
Details: GST-MDM2 and biotinylated p53 peptide, 37° C. 1 h
Protocol: The ability of the compounds to inhibit the interaction between p53 and MDM2 proteins was measured by an HTRF (homogeneous time-resolved fluorescence) assay in which recombinant GST-tagged MDM2 binds to a peptide that resembles the MDM2-interacting region of p53 (Lane et al.). Binding of GST-MDM2 protein and p53-peptide (biotinylated on its N-terminal end) is registered by the FRET (fluorescence resonance energy transfer) between Europium (Eu)-labeled anti-GST antibody and streptavidin-conjugated Allophycocyanin (APC).
Test is performed in black flat-bottom 384-well plates (Costar) in a total volume of […] containing:90 nM biotinylate peptide, 160 ng/ml GST-MDM2, 20 nM streptavidin-APC (PerkinElmerWallac), 2 nM Eu-labeled anti-GST-antibody (PerkinElmerWallac), 0.2% bovine serum albumin (BSA), 1 mM dithiothreitol (DTT) and 20 mM […] (TBS) buffer as follows: Add 10 uL of GST-MDM2 (640 ng/ml working solution) in reaction buffer to each well. Add 10 uL diluted compounds (1:5 dilution in reaction buffer) to each well, mix by shaking. Add 20 uL biotinylated p53 peptide (180 nM working solution) in reaction buffer to each well and mix on shaker. Incubate at 37° C. for 1 h. Add 20 uL streptavidin-APC and Eu-anti-GST antibody mixture (6 nM Eu-anti-GST and 60 nM streptavidin-APC working solution) in TBS buffer with 0.2% BSA, shake at room temperature for 30 minutes and read using a TRF-capable plate reader at 665 and 615 nm (Victor 5, Perkin ElmerWallac). If not specified, the reagents were purchased from Sigma Chemical Co.

Chain of recombinant GST-tagged MDM2 / p53 peptide (Q00987 whole entry): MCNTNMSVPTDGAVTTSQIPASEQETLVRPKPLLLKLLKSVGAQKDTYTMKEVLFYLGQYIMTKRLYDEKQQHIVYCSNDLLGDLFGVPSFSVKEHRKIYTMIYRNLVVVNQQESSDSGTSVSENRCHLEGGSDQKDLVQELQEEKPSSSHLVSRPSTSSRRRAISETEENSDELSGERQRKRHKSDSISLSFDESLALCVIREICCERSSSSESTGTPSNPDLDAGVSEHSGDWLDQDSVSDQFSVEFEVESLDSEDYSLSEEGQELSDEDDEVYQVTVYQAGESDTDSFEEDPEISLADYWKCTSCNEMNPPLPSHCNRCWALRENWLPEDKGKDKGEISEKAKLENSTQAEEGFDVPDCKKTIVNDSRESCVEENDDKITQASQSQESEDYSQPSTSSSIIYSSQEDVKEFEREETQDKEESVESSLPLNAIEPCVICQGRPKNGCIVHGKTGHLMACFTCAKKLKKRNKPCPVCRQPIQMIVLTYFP

Row | Compound | IC50 [µM]
1 | CCOc1cc(C(F)(F)F)ccc1C1=NC(c2ccc(Cl)cc2)C(c2ccc(Cl)cc2)N1C(=O)N1CCC(C(=O)OC)CC1 (centres unmarked) [Example 16, 1-[4,5-Bis-(4-chloro-phenyl)-2-(2-ethoxy-4-trifluoromethyl-phenyl)-4,5-dihydro-imidazole-1-carbonyl]-piperidine-4-carboxylic acid methyl ester] | 1.74
2 | CCOc1cc(C(F)(F)F)ccc1C1=NC(c2ccc(Cl)cc2)C(c2ccc(Cl)cc2)N1C(=O)N1CCN(S(=O)(=O)C(C)C)CC1 (centres unmarked) [Example 6, [4,5-Bis-(4-chloro-phenyl)-2-(2-ethoxy-4-trifluoromethyl-phenyl)-4,5-dihydro-imidazol-1-yl]-[4-(propane-2-sulfonyl)-piperazin-1-yl]-methanone] | 0.1
3 | CCOc1cc(C(F)(F)F)ccc1C1=NC(c2ccc(Cl)cc2)C(c2ccc(Cl)cc2)N1C(=O)N1CCC(n2c(=O)[nH]c3ccccc32)CC1 (centres unmarked) [Example 26, 1-{1-[4,5-Bis-(4-chloro-phenyl)-2-(2-ethoxy-4-trifluoromethyl-phenyl)-4,5-dihydro-imidazole-1-carbonyl]-piperidin-4-yl}-1,3-dihydro-benzoimidazol-2-one] | 0.8
4 | CCOc1cc(C(F)(F)F)ccc1C1=NC(c2ccc(Cl)cc2)C(c2ccc(Cl)cc2)N1C(=O)N(C)c1ccccn1 (centres unmarked) [Example 36, 4,5-Bis-(4-chloro-phenyl)-2-(2-ethoxy-4-trifluoromethyl-phenyl)-4,5-dihydro-imidazole-1-carboxylic acid methyl-pyridin-2-yl-amide] | 4.26
5 | CCOc1cc(C(F)(F)F)ccc1C1=NC(c2ccc(Cl)cc2)C(c2ccc(Cl)cc2)N1C(=O)N1CCC(NCC(=O)N(C)CCC#N)CC1 (centres unmarked) [Example 176, 2-{1-[4,5-Bis-(4-chloro-phenyl)-2-(2-ethoxy-4-trifluoromethyl-phenyl)-4,5-dihydro-imidazole-1-carbonyl]-piperidin-4-ylamino}-N-(2-cyano-ethyl)-N-methyl-acetamide] | 0.021
